Reference: patent publication US20040028714A1, “Composition having insect repellent characteristics” (priority 2000, published 2004)
Values joined by “and” are separate entries in the source; they are usually repeats but may differ in a detail not shown here. Identical values can stand only once.

Tests used:
Assay type in all cases: in vivo
[1] = system: German cockroaches (Blatella Germanica); experiment: Cockroach repellency screening on partially treated formica surface (Example 2); conditions: cockroaches, 20 mg/m^2 on formica
Procedure: The effectiveness of compounds of formula I as an insect repellent was determined using German cockroaches exposed to a formica surface partially treated/partially untreated with a test compound of formula I. The study was conducted in an air conditioned laboratory at a temperature of 22°±2° C. under a normal day/night cycle, using German cockroaches (Blatella Germanica) of mixed sex and age. The study was conducted over a 3 day period and the repellent effectiveness assessed 1, 2 and 3 days after cockroach introduction. A rectangle of formica 40 cm×30 cm was treated at 20 mg/m^2 with a test compound of formula I. This was achieved by soaking a paper wipe (Rag on a Roll ca 20 cm×20 cm) in a solution of the test compound in ethanol, squeezing out the excess liquid and wiping over the surface to give the required coverage. This was checked by weighing the cloth after application. The surface was allowed to dry. A similar rectangle was wiped with ethanol alone (untreated surface). The treated formica rectangle was placed on the bench and a plastic container was placed on the rectangle. This had been treated with fluon to prevent cockroach escape. Two sheets of formica (10 cm×10 cm) were placed on the formica, one on the treated surface and one on the untreated surface. This acted as a cockroach harbourage. The formica sheet to be used in the treated section was treated at the same rate as the treated formica. The formica was placed on two 1 cm high bottle tops to allow cockroaches access under the formica. 20 German cockroaches were added (5 adults and 15 nymphs) to the centre of the formica. No food and water was supplied for these cockroaches. At 1, 2 and 3 days after cockroach introduction the number of cockroaches under each harbourage was counted. After each count the harbourage position was change to avoid the possibility of […] were replaced and new cockroaches were added to replace any dead cockroaches. The above was repeated 3 times to provide a total of 4 replicates.

[2] = system: Black Ants (Ochetellus sp); experiment: Ant repellency on half-treated formica (Example 4); conditions: 20 mg/m^2 on formica; for Number of Black Ants present, Treated Section / Number of Black Ants present, Untreated Section / Number of Black Ants, Dead: single replicates (n = 20); for Number of Black Ants present, Treated Section, Total / Number of Black Ants present, Untreated Section, Total / Number of Black Ants, Dead, Total: total of 4 replicates (80)
Procedure: The effectiveness of compound 2 (example 1) as an insect repellent was determined using ants exposed to a formica surface partially treated/partially untreated with compound 2, and was directly compared to the repellency of the well known insect repellents Farnesol and Dihydrofarnesal.
The study was conducted in an air conditioned laboratory at a temperature of 22°±2° C. under a normal day/night cycle, using Black Ants (Ochetellus sp) of mixed sex and age. The study ws conducted over a 3 day period and the repellent effectiveness assessed 1, 2 and 3 days after ant introduction.
One half of a rectangle of formica 40 cm×30 cm was treated at 20 mg/m^2 with the test compounds. This was achieved by soaking a paper wipe (Rag On A Roll approximately 20 cm×20 cm) in a solution of the test compound in ethanol, squeezing out the excess liquid and wiping over the surface to give the required coverage. This was checked by weighing the cloth after application. The surface was allowed to dry. The other half was wiped with ethanol alone (untreated surface).
The treated formica rectangle was placed on the bench and a glass ring (diameter 20 cm) was placed on the rectangle. This had been treated with fluon to prevent ant escape.
A small plastic container 2 cm in diameter was placed on the formica, one on the treated surface and one on the untreated surface. The plastic container placed on the treated surface had repellent applied in the same way as the treated formica. The plastic container on the untreated surface was wiped with ethanol.
24 hours after treatment (1 day) 20 ants were added to the centre of the formica. No food and water was supplied for these ants. 2 hours after this the number of ants on the treated and untreated surfaces was counted.
The above was repeated 3 times to provide a total of 4 replicates.
The above was repeated at 2 days and 3 days. New ants were used at each time period.

[3] = system: Casemaking Clothes Moths (Tinea pellionella); experiment: Adult clothes moth repellency on treated woolen cloth (Example 5); conditions: fabric soaked in 20 g/L in ethanol, 2 days after moth introduction
Procedure: The effectiveness of compound 2 (example 1) to reduce the presence of cloth moths on woolen cloth was determined and was directly compared to the repellency of the well known moth repellents Citronellol and Farnesol.
The study was conducted in an air conditioned laboratory at a temperature of 22°±2° C. under a normal day/night cycle, using Casemaking Clothes Moths (Tinea pellionella) of mixed sex and age. The study is conducted over a 5 days period and the repellent effectiveness was assessed as follows:
Adults—2 days after insect introduction
A 10 cm×10 cm square of black woolen fabric free of bactericide) was soaked in a solution of the candidate repellent in ethanol at 20 g/L, squeezed and allowed to dry. The woollen square was placed in a small box (5 cm×10 cm×10 cm) which was open at one end to allow entry of adult clothes moth.
A similar square of fabric treated with ethanol (control) was placed in another box of the same size.
These two boxes were placed in an aquarium and 50 mixed sex adult moths were added. These were provided with food and water and left for 5 days.
At the end of 2 days the number of adult moths in each box was counted.
The above was repeated 3 times to provide 4 replicates.

[4] = ants, average of days 1, 2 and 3
[5] = share of moths found in the two boxes

CCNC(=O)C1CC(C)CCC1C(C)C (stereo not drawn) [Compound 2, N-ethyl-p-menthane-3-carboxamide]
Percentage Dead ([1]; 1 day after treatment): 0% | Percentage Present, Treated Section ([1]; 1 day after treatment): 17.5% | Percentage Present, Untreated Section ([1]; 1 day after treatment): 82.5% | Percentage Dead ([1]; 2 days after treatment): 1.2% | Percentage Present, Treated Section ([1]; 2 days after treatment): 16.3% | Percentage Present, Untreated Section ([1]; 2 days after treatment): 82.5% | Percentage Dead ([1]; 3 days after treatment): 2.5% | Percentage Present, Treated Section ([1]; 3 days after treatment): 13.8% | Percentage Present, Untreated Section ([1]; 3 days after treatment): 83.7% | Percentage Present, Treated Section, Average ([1]; average of days 1, 2 and 3): 15.9% | Percentage Present, Untreated Section, Average ([1]; average of days 1, 2 and 3): 82.9% | ant repellency (in words) ([2]; 1, 2 and 3 days after treatment): superior to these two products | Number of Black Ants present, Treated Section ([2]; day 1): 0 (2×) and 2 and 1 | Number of Black Ants present, Untreated Section ([2]; day 1): 20 (2×) and 18 and 19 | Number of Black Ants, Dead ([2]; day 1): 0 | Number of Black Ants present, Treated Section, Total ([2]; day 1): 3 | Number of Black Ants present, Untreated Section, Total ([2]; day 1): 77 | Number of Black Ants, Dead, Total ([2]; day 1): 0 | Number of Black Ants present, Treated Section ([2]; day 2): 1 and 3 (2×) and 2 | Number of Black Ants present, Untreated Section ([2]; day 2): 19 and 17 (2×) and 18 | Number of Black Ants, Dead ([2]; day 2): 0 | Number of Black Ants present, Treated Section, Total ([2]; day 2): 9 | Number of Black Ants present, Untreated Section, Total ([2]; day 2): 71 | Number of Black Ants, Dead, Total ([2]; day 2): 0 | Number of Black Ants present, Treated Section ([2]; day 3): 0 and 1 and 2 and 3 | Number of Black Ants present, Untreated Section ([2]; day 3): 20 and 19 and 18 and 17 | Number of Black Ants, Dead ([2]; day 3): 0 | Number of Black Ants present, Treated Section, Total ([2]; day 3): 6 | Number of Black Ants present, Untreated Section, Total ([2]; day 3): 74 | Number of Black Ants, Dead, Total ([2]; day 3): 0 | Percentage Dead ([2]; ants, 1 day after treatment): 0% | Percentage Present, Treated Section ([2]; ants, 1 day after treatment): 3.7% | Percentage Present, Untreated Section ([2]; ants, 1 day after treatment): 96.3% | Percentage Dead ([2]; ants, 2 days after treatment): 0% | Percentage Present, Treated Section ([2]; ants, 2 days after treatment): 11.2% | Percentage Present, Untreated Section ([2]; ants, 2 days after treatment): 88.8% | Percentage Dead ([2]; ants, 3 days after treatment): 0% | Percentage Present, Treated Section ([2]; ants, 3 days after treatment): 7.5% | Percentage Present, Untreated Section ([2]; ants, 3 days after treatment): 92.5% | Percentage Dead, Average [2, 4]: 0% | Percentage Present, Treated Section, Average [2, 4]: 7.5% | Percentage Present, Untreated Section, Average [2, 4]: 92.5% | Moths Present, Treated Section, Total (%) [3, 5]: (29.4%) | Moths Present, Untreated Section, Total (%) [3, 5]: (70.6%) | The Number of Moths Present, Treated Section ([3]; single replicates (n = 50)): 6 and 7 and 11 and 8 | The Number of Moths Present, Untreated Section ([3]; single replicates (n = 50)): 9 and 19 and 27 and 22 | The Number of Moths Present, Treated Section, Total ([3]; total of 4 replicates): 32 | The Number of Moths Present, Untreated Section, Total ([3]; total of 4 replicates): 77
